Patent US7498348B2, “1 H-imidazole derivatives as cannabinoid receptor modulators” (Solvay Pharmaceuticals, Inc., priority 2003, dated 2009)
In brackets after ≈: the same amount, converted by molar mass. Read-outs that look alike come from different tables or passages of the source.

What was measured:
[1] = Determination of aqueous solubility (precipitate formation after 100-fold dilution of DMSO stock solutions); assay type: physicochemical; settings: kinetic from dmso stock
Method: Determination of Aqueous Solubility
The compounds are dissolved in DMSO to give 10 mg/ml stock solutions. These stock solutions are divided over several plates. Several diluted concentrations are made with DMSO to 5, 2.5, 1.25, 0.625 and 0.3125 mg/ml, respectively. The stock solution and each derived concentration from this stock solution is taken and diluted 100 fold with water or with water containing a buffer. In every case this gives an aqueous solution which contains 1% DMSO (v/v) and 100, 50, 25, 12.5 and 6.25 and 3.125 μg compound/ml, respectively. The formation of a precipitate is determined in each plate. The measurements were performed at pH=7, applying a HEPES buffer and at pH=2, applying hydrochloric acid. Aqueous solubility is expressed in μg/ml in the table below.
Aqueous solubilities of two of the compounds of general formula (I), the compounds 1 and 4, and the compound 1-(4-chlorophenyl)-2-(2,4-dichloro-phenyl)-N-cyclohexyl-1H-imidazole-4-carboxamide (compound 3 from WO 03/063781) were determined according to the procedure described above.

[2] = target: T1, human cannabinoid CB1 receptor (Homo sapiens, UniProt P21554); assay: In vitro affinity for cannabinoid-CB1 receptors ([3H]CP-55,940 radioligand, CHO cell membrane preparations); assay type: binding; settings: CHO cell membranes, stably transfected human CB1, [3H]CP-55,940; read-out: Human cannabinoid-CB1 receptor In vitro affinity - pKi value (converted)
T1 construct: expressed in transfected cells; host or cells: Chinese hamster ovary (CHO) cells, stably transfected; membrane preparations
Method: In Vitro Affinity for Cannabinoid-CB1 Receptors
The affinity of the compounds of the invention for cannabinoid CB1 receptors can be determined using membrane preparations of Chinese hamster ovary (CHO) cells in which the human cannabinoid CB1 receptor is stably transfected in conjunction with [^3H]CP-55,940 as radioligand. After incubation of a freshly prepared cell membrane preparation with the [^3H]-ligand, with or without addition of compounds of the invention, separation of bound and free ligand is performed by filtration over glassfiber filters. Radioactivity on the filter is measured by liquid scintillation counting.
Pharmacological test results of a subset of the compounds of the invention, obtained with the assay described above, are given in table 2 below: […]

T1 sequence (P21554 whole entry): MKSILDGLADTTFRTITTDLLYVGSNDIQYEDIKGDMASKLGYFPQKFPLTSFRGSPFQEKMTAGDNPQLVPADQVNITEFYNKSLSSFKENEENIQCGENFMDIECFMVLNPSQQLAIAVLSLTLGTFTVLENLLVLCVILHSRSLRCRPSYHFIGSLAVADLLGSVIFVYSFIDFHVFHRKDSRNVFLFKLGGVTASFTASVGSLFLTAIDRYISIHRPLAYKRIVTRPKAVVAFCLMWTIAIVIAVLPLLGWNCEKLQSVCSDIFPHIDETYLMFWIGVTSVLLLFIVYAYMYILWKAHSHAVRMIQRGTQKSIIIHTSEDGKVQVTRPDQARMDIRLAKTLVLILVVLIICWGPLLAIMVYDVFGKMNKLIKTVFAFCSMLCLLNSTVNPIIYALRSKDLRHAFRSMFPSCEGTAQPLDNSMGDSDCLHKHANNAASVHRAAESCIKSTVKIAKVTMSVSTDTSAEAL

Ki [2] [nM]	melting point [°C]	Structure (SMILES)	solubility ([1]; pH 2, simulated gastric fluid) [µg/mL]	solubility ([1]; pH 7, aqueous buffer) [µg/mL]	solubility ([1]; aqueous buffer, pH = 7, HEPES buffer, 1% DMSO (v/v), read-out: Aqueous solubility in μg/ml at pH = 7) [µg/mL]	solubility ([1]; simulated gastric fluid, pH = 2, hydrochloric acid, 1% DMSO (v/v), read-out: Aqueous solubility in μg/ml at pH = 2) [µg/mL]
–	–	O=C(NC1CCCCC1)c1cn(-c2ccc(Cl)cc2)c(-c2ccc(Cl)cc2Cl)n1 [1-(4-chlorophenyl)-2-(2,4-dichloro-phenyl)-N-cyclohexyl-1H-imidazole-4-carboxamide, reference compound]	25 (≈ 55.7 µM)	25 (≈ 55.7 µM)	–	–
7.94	155 to 157	O=C(NC1CCCCC1)c1nc(-c2ccc(Cl)cc2Cl)n(-c2ccc(Cl)cc2)c1CN1CCCC1 [Compound 1, N-cyclohexyl-1-(4-chlorophenyl)-2-(2,4-dichlorophenyl)-5-(pyrrolidin-1-ylmethyl)-1H-imidazole-4-carboxamide]	> 100	50 (≈ 94 µM)	–	–
6.31	135 to 136	CCN(C)Cc1c(C(=O)NC2CCCCC2)nc(-c2ccc(Cl)cc2Cl)n1-c1ccc(Cl)cc1 [Compound 2, N-cyclohexyl-1-(4-chlorophenyl)-2-(2,4-dichlorophenyl)-5-(N-ethyl,N-methylaminomethyl)-1H-imidazole-4-carboxamide]	–	–	–	–
100	163 to 166	CN(C)Cc1c(C(=O)NN2CCCCC2)nc(-c2ccc(Cl)cc2Cl)n1-c1ccc(Cl)cc1 [Compound 3, N-(piperidin-1-yl)-1-(4-chlorophenyl)-2-(2,4-dichlorophenyl)-5-(N,N-dimethylaminomethyl)-1H-imidazole-4-carboxamide]	–	–	–	–
126	–	CCN(C)Cc1c(C(=O)NN2CCCCC2)nc(-c2ccc(Cl)cc2Cl)n1-c1ccc(Cl)cc1 [Compound 6, N-(piperidin-1-yl)-1-(4-chlorophenyl)-2-(2,4-dichlorophenyl)-5-(N-ethyl, N-methylaminomethyl)-1H-imidazole-4-carboxamide]	–	–	–	–

Structure (SMILES)	Ki [2] [nM]	melting point [°C]	solubility ([1]; pH 2, simulated gastric fluid) [µg/mL]	solubility ([1]; pH 7, aqueous buffer) [µg/mL]	solubility ([1]; aqueous buffer, pH = 7, HEPES buffer, 1% DMSO (v/v), read-out: Aqueous solubility in μg/ml at pH = 7) [µg/mL]	solubility ([1]; simulated gastric fluid, pH = 2, hydrochloric acid, 1% DMSO (v/v), read-out: Aqueous solubility in μg/ml at pH = 2) [µg/mL]
CN(C)Cc1c(C(=O)NC2CCCCC2)nc(-c2ccc(Cl)cc2Cl)n1-c1ccc(Cl)cc1 [Compound 4, N-cyclohexyl-1-(4-chlorophenyl)-2-(2,4-dichlorophenyl)-5-(N,N-dimethylaminomethyl)-1H-imidazole-4-carboxamide]	31.6	–	–	–	50 (≈ 98.8 µM)	> 100
